For experiment [1], the target named is T1, hormone sensitive lipase, HSL (Rattus norvegicus, UniProt P15304).
T1 construct: Isolated rat fat cells are obtained from epididymal adipose tissue; from tissue; host or cells: fat cells from epididymal adipose tissue of male Wistar rats
T1 sequence (P15304 301-1068 limits assumed): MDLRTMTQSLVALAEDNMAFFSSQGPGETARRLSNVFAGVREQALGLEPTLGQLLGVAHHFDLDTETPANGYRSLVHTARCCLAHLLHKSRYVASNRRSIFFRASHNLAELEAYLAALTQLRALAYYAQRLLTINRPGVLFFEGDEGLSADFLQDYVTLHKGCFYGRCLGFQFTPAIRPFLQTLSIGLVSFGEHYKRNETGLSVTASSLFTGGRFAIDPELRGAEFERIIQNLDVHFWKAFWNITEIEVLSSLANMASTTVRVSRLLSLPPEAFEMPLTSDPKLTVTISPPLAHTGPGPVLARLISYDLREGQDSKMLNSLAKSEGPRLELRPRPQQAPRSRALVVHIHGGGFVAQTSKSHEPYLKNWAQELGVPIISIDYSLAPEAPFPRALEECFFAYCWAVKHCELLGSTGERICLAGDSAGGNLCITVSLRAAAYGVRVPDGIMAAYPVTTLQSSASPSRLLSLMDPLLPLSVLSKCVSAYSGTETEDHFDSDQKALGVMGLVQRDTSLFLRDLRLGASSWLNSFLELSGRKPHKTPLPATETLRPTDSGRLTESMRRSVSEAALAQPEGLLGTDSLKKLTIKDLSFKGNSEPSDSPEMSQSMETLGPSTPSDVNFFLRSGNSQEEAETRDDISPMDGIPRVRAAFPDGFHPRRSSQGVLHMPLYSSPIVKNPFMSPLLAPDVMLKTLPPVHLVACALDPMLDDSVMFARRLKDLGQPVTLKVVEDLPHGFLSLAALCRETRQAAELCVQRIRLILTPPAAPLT
The experiment is described as follows: HSL inhibition assay. The format is biochemical. The settings on record: partially purified HSL from rat fat cells; [3H]trioleoylglycerol substrate; 37° C. for 30 min. The method, then:
Preparation of the Partially Purified HSL:
Isolated rat fat cells are obtained from epididymal adipose tissue from untreated male rats (Wistar, 220-250 g) by collagenase treatment in accordance with published methods (e.g. S, Nilsson et al., Anal. Biochem. 158, 1986, 399-407; G. Fredrikson et al., J. Biol. Chem. 256, 1981, 6311-6320; H. Tornquist et al., J. Biol. Chem. 251, 1976, 813-819). The fat cells from 10 rats are washed three times by flotation with 50 ml of homogenization buffer ([…] Tris/HCl, pH 7.4, 0.25 M sucrose, 1 mM ETDA, 1 mM DTT, 10 μg/ml leupeptin, 10 μg/ml antipain, 20 μg/ml pepstatin) each time and finally taken up in 10 ml of homogenization buffer. The fat cells are homogenized in a Teflon-in-glass homogenizer (Braun-Melsungen) by 10 strokes at 1500 rpm and 15° C. The homogenate is centrifuged (Sorvall SM24 tubes, 5000 rpm, 10 min, 4° C.). The subnatant between the layer of fat at the top and the pellet is removed and the centrifugation is repeated. The subnatant resulting therefrom is centrifuged again (Sorvall SM24 tubes, 20 000 rpm, 45 min, 4° C.). […] After incubation at 4° C. for 60 min (shaking at intervals of 15 min), the mixture is centrifuged (Sorvall SM24 tubes, 3000 rpm, 10 min, 4° C.). The supernatant is adjusted to pH 5.2 by adding glacial acetic acid and is incubated at 4° C. for 30 min. The precipitates are collected by centrifugation (Sorvall SS34, 12 000 rpm, 10 min, 4° C.) and suspended in 2.5 ml of 20 mM Tris/HCl, pH 7.0, 1 mM EDTA, 65 mM NaCl, 13% sucrose, 1 mM DTT, 10 μg/ml leupeptin/pepstatin/antipain. The suspension is dialyzed against 25 mM Tris/HCl, pH 7.4, 50% glycerol, 1 mM DTT, 10 μg/ml leupeptin, pepstatin, antipain at 4° C. overnight and then loaded onto a hydroxiapatite column (0.1 g per 1 ml of suspension, equilibrated with 10 mM potassium phosphate, pH 7.0, 30% glycerol, 1 mM DTT). The column is washed with four volumes of equilibration buffer at a flow rate of 20 to 30 ml/h. The HSL is eluted with one volume of equilibration buffer containing 0.5 M potassium phosphate and then dialyzed (see above) and concentrated 5- to 10-fold by ultrafiltration (Amicon Diaflo PM 10 Filter) at 4° C. The partially purified HSL can be stored at −70° C. for 4 to 6 weeks.
To prepare the substrate, 25-50 μCi of [3H]trioleoylglycerol (in toluene), 6.8 μmol of unlabeled trioleoylglycerol and 0.6 mg of phospholipids (phosphatidylcholine/phosphatidylinositol 3:1 w/v) are mixed, dried with N2 and then taken up in 2 ml of 0.1 M KPi (pH 7.0) by ultrasound treatment (Branson 250, microtip, setting 1-2, 2×1 min with an interval of 1 min). After addition of 1 ml of KPi and renewed ultrasound treatment (4×30 sec on ice with intervals of 30 sec), 1 ml of 20% BSA (in KPi) is added (final concentration of trioleoylglycerol 1.7 mM). For the reaction, 100 μl of substrate solution are pipetted into 100 μl of HSL solution (HSL prepared as above, diluted in 20 mM KPi, pH 7.0, 1 mM EDTA, 1 mM DTT, 0.02% BSA, 20 μg/ml pepstatin, 10 μg/ml leupeptin) and incubated at 37° C. for 30 min. Addition of 3.25 ml of methanol/chloroform/heptane (10:9:7) and of 1.05 ml of 0.1 M K2CO3, 0.1 M boric acid (pH 10.5) is followed by thorough mixing and finally centrifugation (800×g, 20 min). After phase separation, one equivalent of the upper phase (1 ml) is removed and the radioactivity is determined by liquid scintillation measurement.
Substances are normally tested in four independent mixtures. The inhibition of the HSL enzymatic activity by a test substance is determined by comparing with an uninhibited control reaction. The IC50 is calculated from an inhibition plot with at least 10 concentrations of the test substance. The GRAPHIT, Elsevier-BIOSOFT software package is used to analyze the data.

The target of experiment [2] is T2, endothelial lipase (EL) (Homo sapiens, UniProt Q9Y5X9).
T2 construct: made in house; host or cells: recombinant CHO or HEK293 cell lines; concentrated conditioned medium
T2 sequence (Q9Y5X9 21-500): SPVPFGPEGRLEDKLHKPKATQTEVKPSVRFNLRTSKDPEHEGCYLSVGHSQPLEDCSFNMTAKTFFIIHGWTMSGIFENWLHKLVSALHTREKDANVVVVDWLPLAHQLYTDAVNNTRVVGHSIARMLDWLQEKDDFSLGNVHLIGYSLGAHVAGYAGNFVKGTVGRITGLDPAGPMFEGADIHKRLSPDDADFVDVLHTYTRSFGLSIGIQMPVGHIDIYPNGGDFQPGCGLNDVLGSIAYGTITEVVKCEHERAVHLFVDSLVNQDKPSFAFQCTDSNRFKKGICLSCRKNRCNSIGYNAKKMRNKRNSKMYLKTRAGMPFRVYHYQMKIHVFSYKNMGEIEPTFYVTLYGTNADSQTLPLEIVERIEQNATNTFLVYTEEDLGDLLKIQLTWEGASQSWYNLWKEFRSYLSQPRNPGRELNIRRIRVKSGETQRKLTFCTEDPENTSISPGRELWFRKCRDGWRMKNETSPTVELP
Put plainly: EL inhibition assay. The format is biochemical. To be noted: EL from conditioned medium of recombinant cell lines (CHO, HEK293); Bodipy phospholipid substrate; 37° C. for 60 minutes. The text has this: EL is released as secretory protein in high concentration into cell culture medium (conditioned medium) by recombinant cell lines (CHO, HEK293). This is employed as enzyme solution after concentration.
The phospholipase-specific substrate 1,2-bis(4,4-difluoro-5,7-dimethyl-4-bora-3a,4a-diaza-s-indacene-3-undecanoyl)-sn-glycero-3-phosphocholine, (manufacturer Molecular Probes) is used to characterize the enzymatic activity of endothelial lipase and the effect of inhibitors. Hydrolysis of the A1 ester linkage of this phospholipid by the enzyme liberates the fluorescent dye Bodipy which can be detected after separation by thin-layer chromatography on an HPTLC plate (silica gel 60, Merck) or directly in the reaction vessel by measuring the fluorescence. The substrate solution is prepared by taking up 100 μg of 1,2-bis(4,4-difluoro-5,7-dimethyl-4-bora-3a,4a-diaza-s-indacene-3-undecanoyl)-sn-glycero-3-phospho-choline (manufacturer Molecular Probes), 2.4 mg of tripalmitin (Sigma) and 7.9 mg of DOP-choline (1,2-dioleoyl-sn-glycero-3-phosphocholine) in 393 μl of chloroform and then transferring 157 μl into a fresh reaction vessel. After evaporation of the solvent, the lipid mixture is dissolved in 4 ml of 200 mM TRIS-HCl, 150 mM sodium chloride, pH=7.4, by sonication twice. The subsequent enzymic reaction takes place at 37° C. for 60 minutes. For this purpose, 45 μl of the substrate solution are incubated with 1 μl of inhibitor of appropriate concentration (dissolved in DMSO, pure DMSO solution is used as control) and 5 μl of enzyme solution (conditioned medium). Then 3 μl of the assay mixture are loaded onto an HPTLC plate (silica gel 60, Merck), and the liberated fluorescent dye is separated for detection with an eluent (diethyl ether:petroleum benzene:acetic acid [78:22:1]). After evaporation of the eluent, the plate is read in a fluorescence scanner. An increased release of the fluorescent dye in the uninhibited reaction is to be observed as a measure of the enzymic activity.
The enzymatic activity is reduced as a function of the inhibitor concentration used, and the inhibitor concentration at which a half-maximum enzymic activity is observed is called IC50.

This passage reports IC50 results from patent US7718669B2, “Triazolopyridine derivatives as inhibitors of lipases and phospholipases” (Sanofi-Aventis, priority 2005, dated 2010).

In general, IC50 refers to the concentration at which inhibition is half-maximal. Regarding `COC(=O)c1ccc(C2CCN(C(=O)n3nnc4ncccc43)CC2)cc1` [Example 23], in experiment [1], the IC50 came out at 0.45 µM.

For `Cc1ccccc1CNC(=O)n1nnc2nc(Cl)ccc21` [Example 54], the IC50 in experiment [2] was found to be 0.74 µM.

Compound `Nc1ccc(C2CCN(C(=O)n3nnc4ncccc43)CC2)cc1` [Example 42] gave an IC50 in experiment [1] of 0.159 µM.

`CC1CCN(C(=O)n2nnc3nc(Cl)ccc32)CC1` [Example 1, (5-Chloro-[1,2,3]triazolo[4,5-b]pyridin-1-yl)-(4-methylpiperidin-1-yl)-methanone] registered an IC50 in experiment [1] of 0.5 µM.

For the compound `CCCCCN(CCCCC)C(=O)n1nnc2ncccc21` [Example 24], in experiment [1], the IC50 was 0.175 µM.

Consider `CC1CC(C)CN(C(=O)n2nnc3ncccc32)C1` (stereo not shown) [Example 30], for which the midpoint of inhibition in experiment [1], the IC50, lay at 0.585 µM.

With `O=C(N1CCc2ccccc2C1)n1nnc2ncccc21` [Example 4], inhibition in experiment [1] was half-maximal at 0.07 µM (IC50).

Turning to `O=C(C1CCC2(CC1)CCN(c1ccccc1)C2=O)n1nnc2ncccc21` (stereo not shown) [Example 35], the IC50 in experiment [1] was found to be 0.78 µM.

As to `CCCCCCNC(=O)n1nnc2nc(Cl)ccc21` [Example 56], the IC50 in experiment [2] came to 0.04 µM.

In experiment [1], `CC1(C)CCCN(C(=O)n2nnc3ncccc32)C1` [Example 50] yielded an IC50 of 0.367 µM.

For the compound `CC1CCN(C(=O)n2nnc3cccnc32)CC1` [Example 62], 0.16 µM corresponded to half-maximal inhibition in experiment [1] (IC50).

Consider `O=C(N1CCN(c2ccc(-c3ccccc3)cc2)CC1)n1nnc2ncccc21` [Example 26], for which the IC50 in experiment [1] was determined as 0.198 µM.

For the compound `CC1CCN(C(=O)n2nnc3ccc(Cl)nc32)CC1` [Example 61, (5-chloro-[1,2,3]triazolo[4,5-b]pyridin-3-yl)-(4-methylpiperidin-1-yl)-methanone], in experiment [1], the IC50 was found to be 0.03 µM.

Compound `Cc1ccccc1N1CCN(C(=O)n2nnc3ncccc32)CC1` [Example 25] gave an IC50 in experiment [1] of 0.215 µM.

For `CC1CCCN(C(=O)n2nnc3cccnc32)C1` (stereo not shown) [Example 63], the midpoint of inhibition in experiment [1], the IC50, lay at 0.965 µM.

Turning to `O=C(N1CCc2ccccc2C1)n1nnc2cccnc21` [Example 64], in experiment [1], inhibition was half-maximal at 0.03 µM (IC50).

Turning to `Cc1ccccc1CNC(=O)n1nnc2ncc(Cl)cc21` [Example 55], the IC50 in experiment [2] was 0.58 µM.

In turn, `O=C(N1CCC(c2ccc3ccccc3c2)CC1)n1nnc2ncccc21` [Example 33] came in with an IC50 in experiment [1] of 0.112 µM.

Compound `Cc1cccc(C)c1N1CCN(C(=O)n2nnc3ncccc32)CC1` [Example 14] came in with an IC50 in experiment [1] of 0.607 µM.

Turning to `CC1CCN(C(=O)n2nnc3ncc(Cl)cc32)CC1` [Example 5, (6-Chloro-[1,2,3]triazolo[4,5-b]pyridin-1-yl)-(4-methyl-piperidin-1-yl)-methanone], the IC50 in experiment [1] stood at 0.3 µM.

For the compound `O=C(N1CCC(CCc2ccccc2)CC1)n1nnc2ncccc21` [Example 48], the midpoint of inhibition in experiment [1], the IC50, lay at 0.662 µM.

`O=C(N1CCC(c2cccc(C(F)(F)F)c2)CC1)n1nnc2ncccc21` [Example 53] yielded an IC50 in experiment [1] of 0.826 µM.

`CCOc1ccc(N2CCN(C(=O)n3nnc4ncccc43)CC2)cc1` [Example 37] came in with an IC50 in experiment [1] of 0.576 µM.

Regarding `O=C(N1CCc2ccccc2C1)n1nnc2ccc(Cl)nc21` [Example 66, (5-chloro-[1,2,3]triazolo[4,5-b]pyridin-3-yl)-(3,4-dihydro-1H-isoquinolin-2-yl)-methanone], in experiment [1], the IC50 worked out at 0.15 µM.

Consider `O=C(N1CCC(c2ccccc2F)CC1)n1nnc2ncccc21` [Example 43], for which the IC50 in experiment [1] was found to be 0.763 µM.

In turn, `O=C(N1CCN(c2ccc(OCc3ccccc3)cc2)CC1)n1nnc2ncccc21` [Example 41] displayed an IC50 in experiment [1] of 0.062 µM.

`CCCC1CCN(C(=O)n2nnc3ncccc32)CC1` [Example 31] showed an IC50 in experiment [1] of 0.136 µM.

Regarding `CCCCCCCCN1CCN(C(=O)n2nnc3ncccc32)CC1` [Example 51], in experiment [1], the IC50 is 0.237 µM.
